Data from patent publication US20070259874A1, “Phosphodiesterase Inhibitors” (priority 2003, published 2007).

A melting point of 105 to 106 °C was found for `COc1ccc(C2=NOC(C)(c3noc(C4CC4)n3)C2)cc1OC1CCCC1` (centres unmarked) [Compound No. 60, 3-[3-(3-Cyclopentyloxy-4-methoxyphenyl)-5-methyl-4,5-dihydro-isoxazol-5-yl]-5-cyclopropyl-[1,2,4]oxadiazole] in this work. A melting point of 121 to 122 °C was found for `COc1cccc(-c2nc(C3(C)CC(c4ccc(OC)c(OC5CCCC5)c4)=NO3)no2)c1` (centres unmarked) [Compound No. 74, 3-[3-(3-Cyclopentyloxy-4-methoxyphenyl)-5-methyl-4,5-dihydro-isoxazol-5-yl]-5-(3-methoxy-phenyl)-[1,2,4]oxadiazole] in this work. A melting point of 138.5 to 139 °C was found for `CCOc1ccccc1-c1nc(C2(C)CC(c3ccc(OC)c(OC4CCCC4)c3)=NO2)no1` (centres unmarked) [Compound No. 59, 3-[3-(3-Cyclopentyloxy-4-methoxyphenyl)-5-methyl-4,5-dihydro-isoxazol-5-yl]-5-(2-ethoxy-phenyl)-[1,2,4]oxadiazole] in this work. A melting point of 113.5 to 114.9 °C was found for `COc1ccc(C2=NOC(C)(c3noc(-c4ccc(Cl)c(Cl)c4)n3)C2)cc1OC1CCCC1` (centres unmarked) [Compound No. 79, 3-[3-(3-Cyclopentyloxy-4-methoxyphenyl)-5-methyl-4,5-dihydro-isoxazol-5-yl]-5-(3,4-dichloro-phenyl)-[1,2,4]oxadiazole] in this work. A melting point of 122 °C was found for `COc1ccc(C2=NOC(C)(c3noc(-c4ccccc4Cl)n3)C2)cc1OC1CCCC1` (centres unmarked) [Compound No. 76, 5-(2-Chlorophenyl)-3-[3-(3-cyclopentyloxy-4-methoxyphenyl)-5-methyl-4,5-dihydro-isoxazol-5-yl]-[1,2,4]oxadiazole] in this work.
